The source of these data is BindingDB's records for doi:10.1002/cbic.200800782 (Philipps-UniversitÄT Marburg, 2009).

This test concerns the target Queuine tRNA-ribosyltransferase (Zymomonas mobilis subsp. mobilis (strain ATCC 31821 / ZM4 / CP4), UniProt P28720). Briefly: Enzyme Assay. As to conditions: pH 7.3. The text has this:
Inhibition assay using tRNA-guanine transglycosylase (TGT).

Chain of Queuine tRNA-ribosyltransferase (P28720 whole entry): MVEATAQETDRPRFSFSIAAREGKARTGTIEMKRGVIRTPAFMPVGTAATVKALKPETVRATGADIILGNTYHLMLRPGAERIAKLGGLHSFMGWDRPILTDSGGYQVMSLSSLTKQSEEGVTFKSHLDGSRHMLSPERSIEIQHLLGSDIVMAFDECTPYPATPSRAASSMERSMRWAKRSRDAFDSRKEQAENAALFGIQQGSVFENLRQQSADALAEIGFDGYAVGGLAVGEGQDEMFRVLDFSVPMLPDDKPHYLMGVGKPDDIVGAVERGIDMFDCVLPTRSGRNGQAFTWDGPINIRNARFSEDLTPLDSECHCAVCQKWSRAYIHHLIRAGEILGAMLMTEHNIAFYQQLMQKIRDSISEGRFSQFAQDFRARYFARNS

Regarding `CN(C)c1ccc2c(=O)[nH]c(N)nc2c1` [Quinazolinone scaffold, 1], affinity was put at a Ki of 31 µM.
The same measure for `CN(Cc1ccccc1)c1ccc2c(=O)[nH]c(N)nc2c1` [Quinazolinone scaffold, 2]: 7.6 µM; for `Nc1nc2cc3nc[nH]c3cc2c(=O)[nH]1` [lin-benzoguanine scaffold, 3]: 4.1 µM; for `Cc1nc2cc3nc(N)[nH]c(=O)c3cc2[nH]1` [lin-benzoguanine scaffold, 4]: 1.5 µM.
The same measure for `Nc1nc2cc3nc(N)[nH]c3cc2c(=O)[nH]1` [lin-benzoguanine scaffold, 5]: 0.077 µM; for `CNc1nc2cc3c(=O)[nH]c(N)nc3cc2[nH]1` [lin-benzoguanine scaffold, 6]: 0.0058 µM; for `Nc1nc2cc3nc(NCc4cccs4)[nH]c3cc2c(=O)[nH]1` [lin-benzoguanine scaffold, 7]: 0.0035 µM.
The same measure for `Nc1nc2cc3nc(NCc4cccc5ccccc45)[nH]c3cc2c(=O)[nH]1` [lin-benzoguanine scaffold, 8]: 0.0055 µM; for `Nc1nc2cc3[nH]c(NCCN4CCOCC4)nc3cc2c(=O)[nH]1` [lin-benzoguanine scaffold, 9]: 0.006 µM; for `Nc1nc2cc3nc(NCCc4ccccc4)[nH]c3cc2c(=O)[nH]1` [lin-benzoguanine scaffold, 10]: 0.01 µM.
